Experimental data published in ChEMBL document CHEMBL2440076, “New triarylpyrazoles as broad-spectrum anticancer agents: design, synthesis, and biological evaluation” (Eur J Med Chem, 2013).

How the values were obtained:
[1] = tested on: IGROV-1; assay: Growth inhibition of human IGROV1 cells assessed as cell growth at 10 uM after 48 hrs by sulforhodamine B assay; type: functional; details: IGROV-1, 48 h, read-out: Activity
[2] = tested on: Malme-3M; assay: Growth inhibition of human MALME-3M cells assessed as cell growth at 10 uM after 48 hrs by sulforhodamine B assay; type: functional; details: read-out: Activity
[3] = tested on: HCT-116; assay: Growth inhibition of human HCT116 cells after 48 hrs by sulforhodamine B assay; type: functional; details: HCT-116, 48 h
[4] = tested on: COLO 205; assay: Growth inhibition of human COLO205 cells after 48 hrs by sulforhodamine B assay; type: functional; details: COLO 205, 48 h
[5] = tested on: ACHN; assay: Growth inhibition of human ACHN cells after 48 hrs by sulforhodamine B assay; type: functional
[6] = tested on: LOX IMVI; assay: Growth inhibition of human LOXIMVI cells after 48 hrs by sulforhodamine B assay; type: functional
[7] = tested on: SNB-19; assay: Growth inhibition of human SNB19 cells after 48 hrs by sulforhodamine B assay; type: functional; details: SNB-19, 48 h
[8] = tested on: NCI-H322M; assay: Growth inhibition of human NCI-H322M cells assessed as cell growth at 10 uM after 48 hrs by sulforhodamine B assay; type: functional; details: read-out: Activity
[9] = tested on: NCI-H226; assay: Growth inhibition of human NCI-H226 cells after 48 hrs by sulforhodamine B assay; type: functional; details: NCI-H226, 48 h
[10] = tested on: HOP-92; assay: Growth inhibition of human HOP92 cells after 48 hrs by sulforhodamine B assay; type: functional, cell-based; details: HOP-92, 48 h
[11] = tested on: OVCAR-4; assay: Growth inhibition of human OVCAR4 cells assessed as cell growth at 10 uM after 48 hrs by sulforhodamine B assay; type: functional; details: OVCAR-4, 48 h, read-out: Activity
[12] = tested on: HCT-15; assay: Growth inhibition of human HCT15 cells assessed as cell growth at 10 uM after 48 hrs by sulforhodamine B assay; type: functional; details: HCT-15, 48 h, read-out: Activity
[13] = tested on: HCT-15; assay: Growth inhibition of human HCT15 cells after 48 hrs by sulforhodamine B assay; type: functional; details: HCT-15, 48 h
[14] = tested on: CCRF-CEM; assay: Growth inhibition of human CCRF-CEM cells assessed as cell growth at 10 uM after 48 hrs by sulforhodamine B assay; type: functional; details: read-out: Activity
[15] = tested on: KM12; assay: Growth inhibition of human KM12 cells assessed as cell growth at 10 uM after 48 hrs by sulforhodamine B assay; type: functional; details: KM12, 48 h, read-out: Activity
[16] = tested on: LOX IMVI; assay: Growth inhibition of human LOXIMVI cells assessed as cell growth at 10 uM after 48 hrs by sulforhodamine B assay; type: functional; details: read-out: Activity
[17] = tested on: SF-539; assay: Growth inhibition of human SF539 cells assessed as cell growth at 10 uM after 48 hrs by sulforhodamine B assay; type: functional; details: SF-539, 48 h, read-out: Activity
[18] = tested on: HT-29; assay: Growth inhibition of human HT-29 cells assessed as cell growth at 10 uM after 48 hrs by sulforhodamine B assay; type: functional; details: HT-29, 48 h, read-out: Activity
[19] = tested on: A498; assay: Growth inhibition of human A498 cells after 48 hrs by sulforhodamine B assay; type: functional, cell-based; details: A498, 48 h
[20] = tested on: A549; assay: Growth inhibition of human A549/ATCC cells assessed as cell growth at 10 uM after 48 hrs by sulforhodamine B assay; type: functional; details: A549, 48 h, read-out: Activity
[21] = tested on: HOP-62; assay: Growth inhibition of human HOP62 cells after 48 hrs by sulforhodamine B assay; type: functional; details: HOP-62, 48 h
[22] = tested on: SF-268; assay: Growth inhibition of human SF268 cells after 48 hrs by sulforhodamine B assay; type: functional; details: SF-268, 48 h
[23] = tested on: M14; assay: Growth inhibition of human M14 cells after 48 hrs by sulforhodamine B assay; type: functional; details: M14, 48 h
[24] = tested on: SN12C; assay: Growth inhibition of human SN12C cells after 48 hrs by sulforhodamine B assay; type: functional
[25] = tested on: OVCAR-4; assay: Growth inhibition of human OVCAR4 cells after 48 hrs by sulforhodamine B assay; type: functional; details: OVCAR-4, 48 h
[26] = tested on: OVCAR-8; assay: Growth inhibition of human OVCAR8 cells after 48 hrs by sulforhodamine B assay; type: functional; details: OVCAR-8, 48 h
[27] = tested on: MDA-MB-435; assay: Growth inhibition of human MDA-MB-435 cells assessed as cell growth at 10 uM after 48 hrs by sulforhodamine B assay; type: functional; details: MDA-MB-435, 48 h, read-out: Activity
[28] = tested on: HOP-92; assay: Growth inhibition of human HOP92 cells assessed as cell growth at 10 uM after 48 hrs by sulforhodamine B assay; type: functional; details: HOP-92, 48 h, read-out: Activity
[29] = tested on: SR; assay: Growth inhibition of human SR cells after 48 hrs by sulforhodamine B assay; type: functional
[30] = tested on: UACC-62; assay: Growth inhibition of human UACC62 cells after 48 hrs by sulforhodamine B assay; type: functional; details: UACC-62, 48 h
[31] = tested on: MOLT-4; assay: Growth inhibition of human MOLT4 cells assessed as cell growth at 10 uM after 48 hrs by sulforhodamine B assay; type: functional; details: MOLT-4, 48 h, read-out: Activity
[32] = tested on: MCF7; assay: Growth inhibition of human MCF7 cells assessed as cell growth at 10 uM after 48 hrs by sulforhodamine B assay; type: functional; details: MCF7, 48 h, read-out: Activity
[33] = Growth inhibition of human NCI-ADR-RES cells assessed as cell growth at 10 uM after 48 hrs by sulforhodamine B assay; type: functional; details: read-out: Activity
[34] = tested on: Malme-3M; assay: Growth inhibition of human MALME-3M cells after 48 hrs by sulforhodamine B assay; type: functional
[35] = tested on: NCI-H226; assay: Growth inhibition of human NCI-H226 cells assessed as cell growth at 10 uM after 48 hrs by sulforhodamine B assay; type: functional; details: NCI-H226, 48 h, read-out: Activity
[36] = read-out: LC50 (the source's name)

## O=C(Nc1cccc(-n2cc(-c3ccncc3)c(-c3ccc(Cl)c(O)c3)n2)c1)Nc1ccc(Cl)c(Cl)c1
[1]
  growth at 10 µM: 28.7%
[2]
  growth at 10 µM: 10.3%
[3]
  GI50: 1.19 µM
  TGI: 5.73 µM
[3]; [36]
  CC50: > 32.5 µM
[4]
  GI50: 3.96 µM
  LC50 (concentration killing 50% of cells): 22.7 µM
  TGI: 9.49 µM
[5]
  GI50: 1.04 µM
  TGI: > 32.5 µM
[5]; [36]
  CC50: > 32.5 µM
[6]
  GI50: 0.939 µM
  LC50: 15 µM
  TGI: 3.57 µM
[7]
  GI50: 1.46 µM
  LC50 (concentration killing 50% of cells): > 32.5 µM
  TGI: > 32.5 µM
[8]
  growth at 10 µM: 40.6%
[9]
  GI50: 1.51 µM
  TGI: > 32.5 µM
[9]; [36]
  CC50: > 32.5 µM
[10]
  GI50: 0.679 µM
  IC50: 0.68 µM
  LC50: > 32.5 µM
  TGI: 1.91 µM
[11]
  growth at 10 µM: 29.4%
[12]
  growth at 10 µM: 19.8%
[13]
  GI50: 1.23 µM
  LC50: > 32.5 µM
  TGI: 29.6 µM
[14]
  growth at 10 µM: 13.7%
[15]
  growth at 10 µM: 8.15%
[16]
  growth at 10 µM: 21.9%
[17]
  growth at 10 µM: 37%
[18]
  growth at 10 µM: 45.9%
[19]
  GI50: 0.94 µM
  IC50: 0.94 µM
  TGI: 3.17 µM
[19]; [36]
  CC50: > 32.5 µM
[20]
  growth at 10 µM: 4.51%
[21]
  GI50: 2.08 µM
  TGI: 17.6 µM
[21]; [36]
  CC50: > 32.5 µM
[22]
  GI50: 1.49 µM
  TGI: 10.9 µM
[22]; [36]
  CC50: > 32.5 µM
[23]
  GI50: 1.18 µM
  LC50 (concentration killing 50% of cells): > 32.5 µM
  TGI: 6.97 µM
[24]
  GI50: 1.31 µM
  TGI: > 32.5 µM
[24]; [36]
  CC50: > 32.5 µM
[25]
  GI50: 1.69 µM
  LC50 (concentration killing 50% of cells): > 32.5 µM
  TGI: > 32.5 µM
[26]
  GI50: 1.21 µM
  TGI: > 32.5 µM
[26]; [36]
  CC50: > 32.5 µM
[27]
  growth at 10 µM: 9.98%
[28]
  growth at 10 µM: -20.2%
[29]
  GI50: 1.14 µM
  TGI: 15 µM
[29]; [36]
  CC50: > 32.5 µM
[30]
  GI50: 1.11 µM
  LC50 (50% lethal concentration): 29.2 µM
  TGI: 5.21 µM
[31]
  growth at 10 µM: 7.64%
[32]
  growth at 10 µM: 5.74%
[33]
  growth at 10 µM: 20.9%
[34]
  GI50: 1.19 µM
  LC50 (concentration killing 50% of starting cells): > 32.5 µM
  TGI: 8.1 µM
[35]
  growth at 10 µM: 24.7%
